In PMC11213709, “De novo design of proteins housing excitonically coupled chlorophyll special pairs” (Nature Chemical Biology, 2024):

How the values were obtained:
Type in all cases: binding, synthetic construct
SP3 = target: T1, SP3; assay: CD titration (Kd1 […], Kd2 […]); absorption titration (Kd1 […], Kd2 […]); fluorescence titration ([…])
T1 construct: de novo designed C2-symmetric homodimer, two ZnPPaM per dimer

SP1 = target: T2, SP1; assay: X-ray crystal structure at […] Å; absorption titration (Kd1 […], Kd2 […]); fluorescence titration ([…])
T2 construct: de novo designed C2-symmetric homodimer, two ZnPPaM per dimer

SP2 = target: T3, SP2; assay: X-ray crystal structure at […] Å; CD titration (Kd1 […], Kd2 […]); absorption titration (Kd1 […], Kd2 […]); fluorescence titration ([…])
T3 construct: de novo designed C2-symmetric homodimer, two ZnPPaM per dimer

C=Cc1c(C)c2[n]3c1=CC1=NC(=Cc4c(C)c5c([n]4[Zn]3)C(=C3N=C(C=2)[C@@H](C)[C@@H]3CCC(=O)OC)[C@@H](C(=O)OC)C5=O)C(CC)=C1C [ZnPPaM]
Kd (SP3): 800 nM
Kd (SP1): 290 nM
Kd (SP2): 300 nM
